Source: BindingDB's records for doi:10.1016/j.chembiol.2014.09.011 (Astrazeneca R&D, 2014)

What was measured:
Experiment in all cases: AMPD Enzymatic Activity Assay
Conditions in all cases: pH 7.4
[1] = target: T1, AMP deaminase 3 (Homo sapiens, UniProt Q01432)
T1 sequence (Q01432 whole entry): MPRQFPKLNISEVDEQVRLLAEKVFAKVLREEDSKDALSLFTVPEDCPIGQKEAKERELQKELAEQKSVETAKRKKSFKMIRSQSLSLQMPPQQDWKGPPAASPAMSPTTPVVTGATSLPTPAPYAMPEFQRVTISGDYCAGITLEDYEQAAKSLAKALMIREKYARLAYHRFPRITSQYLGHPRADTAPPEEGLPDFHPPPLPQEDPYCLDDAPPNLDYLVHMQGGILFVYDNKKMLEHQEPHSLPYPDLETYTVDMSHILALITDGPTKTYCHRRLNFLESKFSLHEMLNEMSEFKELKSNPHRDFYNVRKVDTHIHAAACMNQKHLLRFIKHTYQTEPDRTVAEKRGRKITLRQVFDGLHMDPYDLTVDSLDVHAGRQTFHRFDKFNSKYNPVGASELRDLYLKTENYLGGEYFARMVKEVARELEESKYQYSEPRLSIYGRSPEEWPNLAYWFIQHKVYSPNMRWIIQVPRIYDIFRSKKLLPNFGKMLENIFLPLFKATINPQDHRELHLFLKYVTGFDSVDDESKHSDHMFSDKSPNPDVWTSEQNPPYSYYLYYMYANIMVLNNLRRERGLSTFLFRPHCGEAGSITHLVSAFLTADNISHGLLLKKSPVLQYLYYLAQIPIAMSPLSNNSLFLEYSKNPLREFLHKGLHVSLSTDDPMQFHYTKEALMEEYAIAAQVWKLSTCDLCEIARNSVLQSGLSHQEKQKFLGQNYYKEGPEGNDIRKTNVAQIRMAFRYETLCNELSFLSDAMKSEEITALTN
Protocol: (§1) AMPD1 was added to buffer A (50 mM HEPES, 150 mM KCl, 5 mM MgCl2, and 0.5 mMglutathione [pH 7.4]) to a concentration of 10 nM. A substrate mix consistingof 2mMNADPH, 6mMa-ketoglutarate, 8mMAMP, and 15 U GDH was prepared in buffer A. Substrate mix ([…]) was added to the plate, followed by centrifugation and incubation for 1 hr. Detection was by absorbance at 340 nm following the conversion of NADPH to NADP+. Recombinant AMPD enzyme activity assays were performed in a 384-well format using the same conditions as described above, except the assay volume was […] and the AMP concentration for the AMPD2 assay was 8 mM. Different AMPD enzyme concentrations were used to have linear reactions: hAMPD1 (4 nM), hAMPD2 (38 nM), hAMPD3 (1 nM), rAMPD1 (116 nM), rAMPD2 (53 nM), rAMPD3 (31 nM), and mAMPD1 (816 nM).

[2] = target: T2, AMP deaminase 3 (Rattus norvegicus, UniProt O09178)
T2 sequence (O09178 whole entry): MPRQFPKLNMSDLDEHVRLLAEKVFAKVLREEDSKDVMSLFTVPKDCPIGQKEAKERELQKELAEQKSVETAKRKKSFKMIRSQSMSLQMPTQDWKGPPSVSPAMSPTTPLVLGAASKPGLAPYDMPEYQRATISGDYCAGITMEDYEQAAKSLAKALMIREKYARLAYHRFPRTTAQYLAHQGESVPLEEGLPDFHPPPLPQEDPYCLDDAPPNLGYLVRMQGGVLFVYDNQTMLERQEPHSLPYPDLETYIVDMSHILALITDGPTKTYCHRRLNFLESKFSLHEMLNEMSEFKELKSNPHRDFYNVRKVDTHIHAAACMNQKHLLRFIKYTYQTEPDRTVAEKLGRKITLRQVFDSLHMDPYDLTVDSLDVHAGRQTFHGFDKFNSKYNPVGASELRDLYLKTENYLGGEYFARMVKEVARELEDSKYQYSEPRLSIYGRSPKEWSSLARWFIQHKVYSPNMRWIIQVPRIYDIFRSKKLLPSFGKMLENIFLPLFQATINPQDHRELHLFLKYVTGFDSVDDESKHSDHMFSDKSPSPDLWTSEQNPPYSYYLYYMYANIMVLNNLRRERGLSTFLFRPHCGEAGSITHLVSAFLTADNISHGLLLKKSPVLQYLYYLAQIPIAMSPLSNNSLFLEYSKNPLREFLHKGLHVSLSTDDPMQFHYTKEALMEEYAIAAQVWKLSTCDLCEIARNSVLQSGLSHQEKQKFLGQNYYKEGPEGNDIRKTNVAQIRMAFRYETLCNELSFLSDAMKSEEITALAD
Protocol: as §1

[3] = target: T3, AMP deaminase 1 (Rattus norvegicus, UniProt P10759)
T3 sequence (P10759 whole entry): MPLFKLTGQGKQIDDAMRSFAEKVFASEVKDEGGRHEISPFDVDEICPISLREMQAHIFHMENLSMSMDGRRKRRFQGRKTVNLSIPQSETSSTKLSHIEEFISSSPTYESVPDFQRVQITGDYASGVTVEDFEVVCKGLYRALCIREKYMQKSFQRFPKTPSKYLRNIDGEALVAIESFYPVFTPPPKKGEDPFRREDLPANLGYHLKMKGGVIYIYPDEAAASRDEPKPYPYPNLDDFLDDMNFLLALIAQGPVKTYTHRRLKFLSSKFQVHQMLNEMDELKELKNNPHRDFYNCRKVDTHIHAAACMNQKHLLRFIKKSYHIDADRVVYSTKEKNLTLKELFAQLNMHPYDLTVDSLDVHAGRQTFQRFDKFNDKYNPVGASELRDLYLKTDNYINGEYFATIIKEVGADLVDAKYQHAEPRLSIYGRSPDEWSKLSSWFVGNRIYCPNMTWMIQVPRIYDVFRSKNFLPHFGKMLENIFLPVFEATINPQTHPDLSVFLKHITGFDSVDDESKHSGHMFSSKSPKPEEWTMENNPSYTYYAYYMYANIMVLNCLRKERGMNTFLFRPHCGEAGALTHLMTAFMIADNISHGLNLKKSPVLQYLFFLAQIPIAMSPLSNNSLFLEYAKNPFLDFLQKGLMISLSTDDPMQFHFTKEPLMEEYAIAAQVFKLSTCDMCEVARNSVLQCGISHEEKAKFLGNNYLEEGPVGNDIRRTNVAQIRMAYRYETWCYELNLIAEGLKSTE
Protocol: as §1

| Structure (SMILES) | IC50 [1] [µM] | IC50 [2] [µM] | IC50 [3] [µM] |
| --- | --- | --- | --- |
| C[C@@H](NCc1ccc(-c2ccc(C(=O)O)cn2)cc1)c1cccc2ccncc12 [6-[4-({[(1R)-1-(isoquinolin-8-yl)ethyl]amino}methyl)phenyl]pyridine-3-carboxylic acid (Compound 2)] | 7.3 | 44 | 5.8 |
| C[C@H](NCc1ccc(-c2ccc(C(=O)O)cn2)cc1)c1cccc2ccncc12 [6-[4-({[(1S)-1-(isoquinolin-8-yl)ethyl]amino}methyl)phenyl]pyridine-3-carboxylic acid (Compound 3)] | 0.075 | 0.4 | 0.027 |
